According to US5179088A, “1-Carba(dethia)cephalosporin antibiotics” (Eli Lilly and Company, priority 1990, dated 1993):

Key:
Format in all cases: cell-based
Parameters in all cases: unit not given here
[1] = tested on: Streptococcus pn; experiment: in vitro antibacterial activity, agar dilution (Streptococcus pn); conditions: strain PARK
Procedure: (§1) *minimum inhibitory concentrations were determined by the Agardilution

[2] = tested on: Klebsiella; experiment: in vitro antibacterial activity, agar dilution (Klebsiella)
Procedure: as §1

[3] = tested on: Streptococcus D; experiment: in vitro antibacterial activity, agar dilution (Streptococcus D)
Procedure: as §1

[4] = tested on: Proteus rett; experiment: in vitro antibacterial activity, agar dilution (Proteus rett); conditions: strain C24
Procedure: as §1

[5] = tested on: Citro; experiment: in vitro antibacterial activity, agar dilution (Citro); conditions: strain CF17
Procedure: as §1

[6] = tested on: Serratia; experiment: in vitro antibacterial activity, agar dilution (Serratia)
Procedure: as §1

[7] = tested on: Salmonella; experiment: in vitro antibacterial activity, agar dilution (Salmonella)
Procedure: as §1

[8] = tested on: Staphylococcus Aureus; experiment: in vitro antibacterial activity, agar dilution (Staphylococcus aureus)
Procedure: as §1

[9] = tested on: Staphylococcus Epi; experiment: in vitro antibacterial activity, agar dilution (Staphylococcus epi)
Procedure: as §1

[10] = tested on: H. Influ.; experiment: in vitro antibacterial activity, agar dilution (H. influ.)
Procedure: as §1

[11] = tested on: Proteus morg; experiment: in vitro antibacterial activity, agar dilution (Proteus morg); conditions: strain PR15
Procedure: as §1

[12] = tested on: Enterbacter Aerogenes; experiment: in vitro antibacterial activity, agar dilution (Enterobacter aerogenes)
Procedure: as §1

[13] = tested on: Acin; experiment: in vitro antibacterial activity, agar dilution (Acin); conditions: strain AC12
Procedure: as §1

[14] = tested on: Shig. sonn; experiment: in vitro antibacterial activity, agar dilution (Shig. sonn); conditions: strain N9
Procedure: as §1

[15] = tested on: Enterbacter Cloacea; experiment: in vitro antibacterial activity, agar dilution (Enterobacter cloacae)
Procedure: as §1

[16] = tested on: Streptococcus A; experiment: in vitro antibacterial activity, agar dilution (Streptococcus A); conditions: strain C203
Procedure: as §1

[17] = tested on: E. coli; experiment: in vitro antibacterial activity, agar dilution (E. coli)
Procedure: as §1

[18] = tested on: Proteus incon; experiment: in vitro antibacterial activity, agar dilution (Proteus incon); conditions: strain PR33
Procedure: as §1

Cn1c([N+](=O)[O-])cnc1-c1nc(C2=C(C(=O)O)N3C(=O)[C@@H](NC(=O)/C(=N\O)c4csc(N)n4)[C@H]3CC2)cs1 [Example 33, 7β-[(2-Aminothiazol-4-yl)-Z-hydroxyiminoacetylamino]-1-carba-(1-dethia)-3-[2-(4-nitro-3-methylimidazol-2-yl)thiazol-4-yl]-3-cephem-4-carboxylicacid]
minimum inhibitory concentration [1]: .015
minimum inhibitory concentration ([2]; strain KAE): 2
minimum inhibitory concentration ([2]; strain X26): .015
minimum inhibitory concentration ([2]; strain X68): 1
minimum inhibitory concentration ([3]; strain 2041): 1
minimum inhibitory concentration ([3]; strain X66): 128
minimum inhibitory concentration [4]: .06
minimum inhibitory concentration [5]: 4
minimum inhibitory concentration ([6]; strain SE3): 16
minimum inhibitory concentration ([6]; strain X99): 2
minimum inhibitory concentration ([7]; strain 1335): 2
minimum inhibitory concentration ([7]; strain X514): .5
minimum inhibitory concentration ([8]; strain S13E): 4
minimum inhibitory concentration ([8]; strain V41): .5
minimum inhibitory concentration ([8]; strain X1.1): .06
minimum inhibitory concentration ([8]; strain X400): > 128
minimum inhibitory concentration ([9]; strain 222): 1
minimum inhibitory concentration ([9]; strain 270): 4
minimum inhibitory concentration ([10]; res, strain 76): .015
minimum inhibitory concentration ([10]; sens, strain C.L.): .06
minimum inhibitory concentration [11]: 4
minimum inhibitory concentration ([12]; strain C32): 1
minimum inhibitory concentration ([12]; strain EB17): 1
minimum inhibitory concentration [13]: 128
minimum inhibitory concentration [14]: 2
minimum inhibitory concentration ([15]; strain 265A): 16
minimum inhibitory concentration ([15]; strain EB5): 1
minimum inhibitory concentration [16]: < .008
minimum inhibitory concentration ([17]; strain EC14): 1
minimum inhibitory concentration ([17]; strain N10): 2
minimum inhibitory concentration ([17]; strain TEM): 1
minimum inhibitory concentration [18]: .25

CON=C(C(=O)NC1C(=O)N2C(C(=O)[O-])=C(c3csc(-c4ccc[n+](C)c4)n3)CCC12)c1csc(N)n1 (stereo not drawn) [Example 34, 7β-[(2-aminothiazol-4-yl)-Z-methoximinoacetylamino]-1-carba-(1-dethia)-3-[2-(1-methyl-3-pyridyl)thiazol-4-yl]-3-cephem-4-carboxylic acid]
minimum inhibitory concentration [1]: .015
minimum inhibitory concentration ([2]; strain KAE): .25
minimum inhibitory concentration ([2]; strain X26): < .008
minimum inhibitory concentration ([2]; strain X68): .06
minimum inhibitory concentration ([3]; strain 2041): 128
minimum inhibitory concentration ([3]; strain X66): > 128
minimum inhibitory concentration [4]: .03
minimum inhibitory concentration [5]: .015
minimum inhibitory concentration ([6]; strain SE3): .125
minimum inhibitory concentration ([6]; strain X99): .06
minimum inhibitory concentration ([7]; strain 1335): .06
minimum inhibitory concentration ([7]; strain X514): .015
minimum inhibitory concentration ([8]; strain S13E): > 128
minimum inhibitory concentration ([8]; strain V41): 8
minimum inhibitory concentration ([8]; strain X1.1): 1
minimum inhibitory concentration ([8]; strain X400): 128
minimum inhibitory concentration ([9]; strain 222): 4
minimum inhibitory concentration ([9]; strain 270): 16
minimum inhibitory concentration ([10]; res, strain 76): .015
minimum inhibitory concentration ([10]; sens, strain C.L.): .015
minimum inhibitory concentration [11]: .06
minimum inhibitory concentration ([12]; strain C32): .03
minimum inhibitory concentration ([12]; strain EB17): .03
minimum inhibitory concentration [13]: 128
minimum inhibitory concentration [14]: .06
minimum inhibitory concentration ([15]; strain 265A): 4
minimum inhibitory concentration ([15]; strain EB5): .125
minimum inhibitory concentration [16]: .015
minimum inhibitory concentration ([17]; strain EC14): .015
minimum inhibitory concentration ([17]; strain N10): .03
minimum inhibitory concentration [18]: .03
